Data from paper PMC6076261, “A new quinoline-based chemical probe inhibits the autophagy-related cysteine protease ATG4B” (Scientific Reports, 2018).

Experiments:
SKBR3-hrGFP-LC3B cells = experiment: High content screening of GFP-LC3B puncta; type: cell-based; conditions: 100 nM, 1 µM, 10 µM; 6 h and 24 h
Excerpt: One hundred of the predicted best binding ATG4B inhibitors were obtained to test for effects on GFP-LC3B puncta levels in SKBR3-hrGFP-LC3B breast cancer cells cultured in standard fed conditions. Based on our observations using ATG4B-siRNAs (Figs 2a,b and S1) and several reports in the literature[22]–[24], we expected that reduced ATG4B function would primarily affect LC3B-II recycling and lead to an increase in GFP-LC3B puncta, whereas complete loss of ATG4B would also affect pro-LC3B processing and lead to a decrease in GFP-LC3B puncta formation. Compounds were initially tested at three concentrations (100 nM, 1 µM and 10 µM) and two treatment periods (6 hour and 24 hour). In parallel, all compounds were tested at a single concentration (8 µM) in a FRET-LC3 ATG4B enzymatic assay developed in our group. […] Calculations predicted that compound 1–4 bound to closed binding site#1 (Fig. S2) while 2–22 and 3–22 bound to open site#2 (Fig. S3) and 4–6 and 4–28 bound to closed site#2 (Figs S4 and S5). Of these, compounds 1–4 and 4–6 are biphenols which are potentially metabolically unstable by oxidation, sulfation and glucuronidation pathways. Compound 2–22 and 3–22 have electrophilic sites, which are drawbacks for drug development as they are prone to metabolic transformation and could lead to covalent bond formation with biological nucleophiles. […] It was nonetheless selected for further follow-up based on its favorable structural characteristics and resemblance to the known drugs and lysosomal-related autophagy inhibitors, chloroquine and hydroxychloroquine, and to the styrylquinoline, MK-571, a selective antagonist of leukotriene D4 known to have an excellent pharmacokinetic profile in terms of oral bioavailability and long duration of action.
High-throughput fluorescence microscopy was performed at room-temperature on the InCell Analyzer 1000 (GE Healthcare) using the 20X objective to view Hoescht 33342 nuclear stain, ethidium homodimer (EthD1) viability stain and GFP-LC3 puncta in SKBR3-hrGFP-LC3B cells. Thirty min prior to imaging, cells were incubated at 37 °C with 4 µM Hoechst 33342 (Invitrogen) and 0.5 µM EthD1 (Invitrogen). Image analysis was performed using InCell Developer Toolbox (Ver. 1.6, GE Healthcare). Individual cells were identified with segmentation of nuclei based on Hoechst 33342 staining. Cell borders were determined by defining a radius around the nucleus. Cells were classified as “dead” if the defined cell overlapped by at least 50% with the EthD1 signal. The number of GFP-LC3 puncta within each live cell was then counted, as well as the number of live cells with at least 5 puncta. Puncta were defined as GFP positive structures of at least 1 pixel with a form factor (estimate of circularity) of at least 0.4.

MCF7 cells = experiment: LC3B-based autophagy flux assay (western blot) in MCF7 cells; type: cell-based; conditions: with and without bafilomycin A1
Excerpt: While the effects observed were modest, this observation is consistent with reduced LC3B-II recycling and reduced autophagic flux.

[1] = Stability of 4-28 under irradiation, HPLC analysis; type: physicochemical
Excerpt: 4–28 is a 4-aminostyrylquinoline, a structural class known to be photo-reactive[51]. In preliminary assays under standard conditions with the reducing agent TCEP present, we noted the formation of isomers and adducts between 4–28 and TCEP (Fig. 3b). Thus, to confirm the ability of 4–28 to inhibit ATG4B activity, we used a mass spectrometry assay using a GFP-LC3-YFP substrate[36] and by using activation of the enzyme with TCEP on solid support, which can be easily removed after the activation and prior to incubation with the inhibitor. […] (Fig. 3d). […] By these two assays, we confirmed the ability of 4–28 to inhibit ATG4B catalytic activity.
In our case, with incubation of 4–28 for 1 h under UV-irradiation, the formation of the cis compound was observed by HPLC and ^1H NMR along with other compounds consistent with further electrocyclization (Figs 3b and S6 and S7). Given these observed instabilities and reactivity, a structure-activity relationship study was initiated with an aim to identify an analog with improved stability and enhanced potency against ATG4B and with a pharmacokinetic profile suitable to support in vivo testing.

ATG4B [2] = biological target: T1, ATG4B (Homo sapiens, UniProt Q9Y4P1); experiment: Fluorimetric ATG4B enzymatic assay with fluorescent peptide substrate pim-FG-PABA-AMC; type: biochemical; conditions: for IC50: pim-FG-PABA-AMC substrate, read-out: IC50, fluorimetric assay with fluorogenic peptide substrate
T1 sequence (Q9Y4P1 1-393): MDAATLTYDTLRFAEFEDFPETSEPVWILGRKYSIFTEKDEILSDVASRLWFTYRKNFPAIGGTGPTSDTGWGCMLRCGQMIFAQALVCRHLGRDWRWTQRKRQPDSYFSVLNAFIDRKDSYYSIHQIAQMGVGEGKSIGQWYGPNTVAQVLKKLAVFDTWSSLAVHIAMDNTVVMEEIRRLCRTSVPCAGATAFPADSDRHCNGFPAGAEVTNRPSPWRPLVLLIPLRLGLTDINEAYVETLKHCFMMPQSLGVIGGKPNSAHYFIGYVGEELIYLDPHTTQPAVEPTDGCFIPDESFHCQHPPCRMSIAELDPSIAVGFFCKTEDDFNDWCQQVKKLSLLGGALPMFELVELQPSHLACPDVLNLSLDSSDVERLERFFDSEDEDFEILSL
Experimental: 100 μL of immobilized TCEP in deionized water was diluted in 2.50 mL of buffer (50 mM Tris, 35 mM NaCl, pH = 8). The sample was centrifuged at 10,000 × g during 1 min. The supernatant was removed. This operation was done two more times. […] The solution was incubated on a carousel at 4 °C for 1 h. This solution was then diluted with 2.06 mL of buffer (50 mM Tris, 35 mM NaCl, 5 mM EDTA, pH 8), centrifuged at 10,000 × g during 1 min and the supernatant, containing the activated ATG4B (1 µM), was kept. A 96-well all-black plate was loaded where each well was charged with 55 µL of inhibitor at different concentrations (0 µM to 100 µM or 200 µM) in buffer/DMSO 41:3 (v/v) and 20 μL of enzyme or buffer were dispensed using a dispenser (Biotek). Plate was incubated for 30 min. A single read was done using excitation and emission wavelengths of 350/450 nm. 25 µL of peptide substrate (pim-FG-PABA-AMC)[52] (final assay concentration 100 µM) was dispensed using a dispenser (Biotek). Experiments were performed in triplicate except when it is mentioned. Fluorescent reads were performed using the Synergy 4 (Biotek) at 25 °C using excitation and emission wavelengths of 350/450 nm every 15 min for 2 h.

ATG4B [3] = biological target: T1, ATG4B; experiment: Mass spectrometry ATG4B enzymatic assay with GFP-LC3-YFP substrate
Experimental: The sample was centrifuged at 10000 × g during 1 min. The supernatant was removed. This operation was done two more times. […] 15 µL of this ATG4B solution were mixed with the 20 µL rinsed immobilized TCEP solution. The solution was incubated on a carousel at 4 °C for 1 h. […] Kinetic determination was performed in triplicate in 1 dram HPLC vials using 350 µL glass inserts. […] The analysis of the m/z distribution signal resulting from the protein substrate was performed by Agilent MassHunter Workstation software elucidating proteins 20000–80000 Da between 700 m/z and 1800 m/z. […] The amount of cleavage was determined by calculating the value of the formula A/(A + B) where A was the peak height of the 27885 Da residue and B was the peak height of the 72904 Da residue. Each experiment was assessed with a concomitant parallel negative control.

ATG4B [4] = biological target: T1, ATG4B; experiment: FRET-LC3 ATG4B enzymatic assay; type: biochemical; conditions: read-out: inhibition in the screening FRET assay

In the case of `Cc1cc(Cc2cc(C)c(O)c(CO)c2)cc(CO)c1O` [1–4], the “effect on GFP-LC3 puncta in primary screen” value (“effect on GFP-LC3 puncta” for short) (SKBR3-hrGFP-LC3B cells) is reported as “increase in GFP-LC3 puncta”.

In the case of `COc1cccc(NC(=O)C(=O)C(C(=O)c2ccccc2F)C2OC(=O)c3ccccc32)c1` (stereo not shown) [2–22], the “effect on GFP-LC3 puncta” value (SKBR3-hrGFP-LC3B cells) is reported as “increase in GFP-LC3 puncta”.

With `O=C(Nc1ccc([N+](=O)[O-])cc1)C(=O)C(C(=O)c1ccccc1F)C1OC(=O)c2ccccc21` (stereo not shown) [3–22] the “effect on GFP-LC3 puncta” value (SKBR3-hrGFP-LC3B cells) was “increase in GFP-LC3 puncta”.

In the case of `CCCCN(CCC(=O)O)c1ccc(/C=C/c2ccnc3ccccc23)cc1` [4–28], the “effect on GFP-LC3 puncta” value (SKBR3-hrGFP-LC3B cells) is reported as “decrease in GFP-LC3 puncta”, the “endogenous LC3B-II” value (MCF7 cells) is reported as “accumulation of LC3B-II that was not additive to bafilomycin A1” and the “cis-isomer formed under assay conditions” value ([1]; 1 irradiation at 350 nm each 15 min for 2 h) is reported as 4%. The “stability under UV irradiation” value ([1]; 1 h UV irradiation, HPLC and 1H NMR) was “instability under UV irradiation”, the IC50 (ATG4B [2]) was 79 ± 9 µM and the IC50 (ATG4B [3]) was 116 ± 14 µM. It also gave an inhibition at 8 µM (ATG4B [4]) of 43%.

With `CCOC(=O)CCSC(SCCC(=O)OCC)c1ccc(/C=C/c2ccnc3cc(Cl)ccc23)cc1` [Compound 68] the IC50 (ATG4B [2]) was > 100 µM.

For `C=CCSC(SCC=C)c1ccc(/C=C/c2ccnc3cc(Cl)ccc23)cc1` [Compound 69], the IC50 (ATG4B [2]) was > 100 µM.

With `CCN(CCO)CCCC(C)Nc1ccnc2cc(Cl)ccc12` (stereo not shown) [hydroxychloroquine, reference compound] the “inhibition of activity of purified ATG4B” value (ATG4B [2]; up to 200 µM) was “did not show significant inhibition”.
